We go through 10 compounds from US20260295059A1, “BROAD-SPECTRUM ANTIBIOTIC HYBRIDS FOR THE TREATMENT OF MULTI-DRUG RESISTANT INFECTIONS” (priority 2023, published 2026).

For data set [1], the system named is P. aeruginosa. Nature of the data set: Activity against challenge panel of 207 P. aeruginosa isolates (MIC50/MIC90). The class given is cell-based. The conditions noted are these: Pseudomonas aeruginosa. As to the method:
(§1) Dry Powder Formulation and in vivo Efficacy of UOM-001 and UOM-005 in a Lung Infection Model. […] The activity of DPI UOM-001 and comparator antibiotics was assessed against a challenge panel consisting of 207 P. aeruginosa isolates collected from different parts of the world; 105 isolates were enriched for resistance against β-lactam/β-lactamase inhibitor combinations (Table 6). […] The teixobactin-lipopeptide hybrids have a labile linker between the two antibiotic components that allows for sustained release of each component at the infection site simultaneously, thereby targeting their synergistic activity. Whereas the individual components when administered together likely display different disposition, uptake, and elimination characteristics, and therefore become diffusely distributed from each other, resulting in the loss of antibacterial synergy. […] In contrast, following intravenous administration of an identical dose, the ELF concentration of UOM-001 was below the limit of quantification (0.1 μg/mL). […] Pulmonary surfactant is a primary component of the ELF which can bind antibiotics that can impede the antibacterial activity of the drug. The binding of UOM-001 and teixobactin (5 mg/L for 4 h 37° C.) to lung surfactant or its individual components was determined by ultracentrifugation and LC-MS (FIG. 5C). The low binding of UOM-001 to lung surfactant is consistent with its good efficacy in the lung infection model. The effect of surfactant on the in vitro antibacterial activity of UOM-001 was assessed with the use of three polymyxin-resistant P. aeruginosa cystic fibrosis isolates. Beractant (Survanta™; Abbott Laboratories) served as the pulmonary surfactant. Beractant is a bovine-derived surfactant containing 25 mg/mL phospholipids. Although its composition differs slightly from that of human surfactant, it is functionally equivalent. For surfactant testing, the bacterial growth medium was supplemented with 10% beractant (=2.5 mg/mL). Since the surfactant produces turbidity, the minimum bactericidal concentration (MBC) was used to compare potency of UOM-001 in the absence or presence of surfactant. The MBCs of UOM-001 (0.125-0.5 mg/L) were not affected even when tested with the highest concentrations of surfactant (2.5 mg/mL, 10%).

The subject of a further data set is Gram-positive bacteria. Briefly: Antibacterial activity against Gram-positive bacteria. The class given is cell-based. From the text: (§2) Polymyxin lipopeptides can act as powerful potentiators for FDA-approved non-antibiotic drugs, by permeabilizing the Gram-negative outer membrane, allowing the non-antibiotic drug to enter the bacterial cell and reach its intracellular targets (Hussein et al. (2018) Comput. Struct. Biotechnol. J. 16:587-599; Hussein et al. (2017) Microbiol. Drug Resist. 23:640-650; Jasim et al. (2017) J. Biomed. Nanotechnol. 13:447-457; Schneider et al. (2016) ACS Infect. Dis. 2:478-488; Tran et al. (2018) Front. Pharmacol. 9:359; Tran et al. (2018) Front. Microbiol. 9:721; Schneider et al. (2017) Essays Biochem. 61:115-125; Diep et al. (2017) Antimicrob. Agents Chemother. 61; Rao et al. (2016) J. Antimicrob. Chemother. 71:3148-3156; Sharma et al. (2017) Int. J. Antimicrob. Agents 49:224-232).

Another data set concerns Gram-negative bacteria. Briefly: Antibacterial activity against Gram-negative bacteria. It counts as cell-based.
Source text: as §2

For the next data set, the system named is PDR P. aeruginosa. Nature of the data set: Activity against challenge panel of 207 P. aeruginosa isolates (MIC50/MIC90). The class given is cell-based. Particulars: P. aeruginosa (n = 207). As to the method: as §1
The test system of data set [2] is P. aeruginosa. Briefly: MIC determination, P. aeruginosa strains. The class given is cell-based. Particulars: 11 PDR P. aeruginosa strains. From the text:
(§3) Agents Chemother. 61; Rao et al. (2016) J. Antimicrob. Chemother. 71:3148-3156; Sharma et al. (2017) Int. J. Antimicrob. Agents 49:224-232). Subsequently, this SAR-based design strategy has been expanded to include teixobactins conjugated via labile and non-labile linkers to the polymyxin-lipopeptides (e.g., polymyxin B nonapeptide, FADDI-002 and octapeptin C4) (Velkov et al. (2018) Cell Chem. Biol. 25:380-391 e385; Velkov et al. (2013) Future Microbiol. 8:711-724; Velkov et al. (2014) ACS Chem. Biol. 9:1172-1177; Velkov et al. (2010) J. Med. Chem 53:1898-1916), which generated potent teixobactin lipopeptide hybrids active against teixobactin-resistant PDR Gram-negative ‘superbugs’ (Table 4).

The subject of the next data set is A. baumannii. Briefly: MIC determination, A. baumannii strains. It counts as cell-based. The conditions noted are these: 4 PDR A. baumannii strains.
Source text: as §3

For the next data set, the system named is S. aureus. Nature of the data set: MIC determination, S. aureus strains. It counts as cell-based. Particulars: 3 PDR S. aureus strains.
Source text: as §3

The next data set relates to pulmonary infections. Particulars: 230 critically-ill patients, cited from earlier work.
The test system of data set [3] is P. aeruginosa FADDI-PA021m. Briefly: Static time-kill study, FADDI-PA021m. It counts as cell-based. Particulars: native teixobactin or polymyxin B (MICs >128 mg/L).
For data set [4], the system named is P. aeruginosa FADDI-PA021m. Briefly: MIC against polymyxin-resistant cystic fibrosis isolate FADDI-PA021m. The class given is cell-based.

Where a SMILES comes first, the peptide text is derived from it. Bridges are numbered along the chain shown (N, C = ends). [ ]: non-standard residue; d: D form. The star is where a group is joined. ξ: configuration not given here. Decanoyl(3R-OH) = CCCCCCC[C@@H](O)CC(=O)*; Decanoyl = CCCCCCCCCC(=O)*; dDab = NCC[C@@H](N)C(=O)O; Dab = NCC[C@H](N)C(=O)O; ξDab = NCCC(N)C(=O)O

In the case of `NCC[C@H](O)C(=O)N[C@@H]1C[C@H](N)[C@@H](O[C@H]2O[C@H](CN)[C@@H](O)[C@H](O)[C@H]2O)[C@H](O)[C@H]1O[C@H]1O[C@H](CO)[C@@H](O)[C@H](N)[C@H]1O` [AMK, amikacin], in the data set with P. aeruginosa [1], the MIC50 turned out to be 16 µg/mL and the MIC90 was greater than 32 µg/mL.
For `CCCCCCCCCC(=O)N[C@H](CCN)C(=O)N[C@H]1CCNC(=O)[C@H](CC(C)C)NC(=O)[C@H](CCN)NC(=O)[C@H](CCN)NC(=O)[C@H](CC(C)C)NC(=O)[C@@H](Cc2ccccc2)NC(=O)[C@H](CCN)NC1=O` [FADDI-115] (Decanoyl-[dDab][Dab][Dab][dF]L[Dab][Dab]L; lactam 2-C), in the data set with Gram-positive bacteria, the “activity against Gram-positive bacteria” value is listed as “potent activity”. For the same compound, the “activity against Gram-negative bacteria” value in the data set with Gram-negative bacteria is on record as “potent activity”.
For `C[C@H]1COc2c(N3CCN(C)CC3)c(F)cc3c(=O)c(C(=O)O)cn1c23` [LEVO, levofloxacin], in the data set on P. aeruginosa [1], the MIC50 was 8 µg/mL and the MIC90 was greater than 16 µg/mL.
In the case of `C[C@@H](O)[C@H]1C(=O)N2C(C(=O)O)=C(S[C@@H]3CN[C@H](C(=O)N(C)C)C3)[C@H](C)[C@H]12` [MER, meropenem], in the data set on P. aeruginosa [1], the MIC50 amounted to 16 µg/mL and the MIC90 was greater than 32 µg/mL.
For `CCCCCCC[C@@H](O)CC(=O)N[C@H](CCN)C(=O)NC1CCNC(=O)[C@H](CC(C)C)NC(=O)[C@H](CCN)NC(=O)[C@H](CCN)NC(=O)[C@H](CC(C)C)NC(=O)[C@@H](Cc2ccccc2)NC(=O)[C@H](CCN)NC1=O` (stereo partly drawn) [octapeptin C4] ({Decanoyl(3R-OH)}-[dDab][ξDab][Dab][dF]L[Dab][Dab]L; lactam 2-C), the “activity against Gram-positive bacteria” value in the data set with Gram-positive bacteria is “potent activity”. In the data set on Gram-negative bacteria, the “activity against Gram-negative bacteria” value is recorded as “potent activity”.
For the compound ceftazidime-avibactam [CAZ-AVI], in the data set with PDR P. aeruginosa, the MIC50 came to 2 µg/mL and the MIC90 was determined as 8 µg/mL.
As to colistin, the “colistin MIC (PDR strains)” value in the data set on P. aeruginosa [2] was 8 to 128 µg/mL; with A. baumannii, 8 to 128 µg/mL; in the data set on S. aureus it was greater than 128 µg/mL. Moreover, in the data set on PDR P. aeruginosa, the MIC50 turned out to be 1 µg/mL. Also, the MIC90 in the data set on PDR P. aeruginosa is 1 µg/mL. For the same compound, in the data set with pulmonary infections, the “efficacy of parenteral colistin for pulmonary infections” value was “disappointing”. Further, the “exposure of colistin at the infection site” value in the data set on pulmonary infections (parenteral, pulmonary infections) is given as “very limited exposure at the infection site”.
For the compound gentamicin [GNT], in the data set on PDR P. aeruginosa, the MIC50 came out at 8 µg/mL and the MIC90 was greater than 16 µg/mL.
On to piperacillin-tazobactam [PIP-TAZ], for which, in the data set on PDR P. aeruginosa, the MIC50 was 64 µg/mL and the MIC90 is greater than 128 µg/mL.
In the case of polymyxin B, the killing entry in data set [3] is “no killing was observed”. In data set [4], this compound had a minimal inhibitory concentration (MIC) greater than 128 µg/mL.
